Consider three compounds from patent US8946474B2, “Polymorphic form of a calcimimetic compound” (LEO Pharma A/S, priority 2010, dated 2015).

The structures appear in SMILES notation. Converted amounts (≈) assume the structure as drawn. “And” between values parts separate entries of the source, which are not always exact repeats. Equal values may be shown once.

What all share (assay type): physicochemical
Data set [1] can be described thus: Aqueous solubility as a function of pH. The settings on record: for Solubility / solubility at 24 h: room temperature (25° C.), shaken 24 hours; for solubility at 24 h: 25 °C, thermodynamic from solid. How it is done:
In addition to the characterizing analyses by XRPD, XRC, DSC, ATR-FTIR and SS NMR discussed hereinabove, the solubility of {4-[(1R,3S)-3-((R)-1-Naphthalen-1-yl-ethylamino)-cyclopentyl]-phenoxy}-acetic acid Form C and X has been determined as function of pH and in MeOH.
The aqueous solubility of Form C and Form X was determined as a function of pH at 25° C. in 0.1N HCl (pH 1.0) and in Sorensen phosphate buffers at pH 2.0, 4.0, 6.0 and 8.0. For each pH value two individual determinations were made. Form C or Form X was weighed out (11 mg for pH 1, 4 mg for pH 2-8) in scintillation vials and 4 ml 0.1N HCl or buffer was added. The vials were shaken for 24 hours at 25° C. After 24 hours it was checked that the vial still contained undissolved material. The suspensions were filtered through a 0.45 μm filter, which was first saturated with app. 0.5 ml filtrate. The resulting filtrates were diluted and analyzed by HPLC vs. a standard curve.

A short description of data set [2]: Stress stability test for solid state transformation. Particulars: 60° C., 60° C./75% relative humidity and 80° C./75% relative humidity; 4 weeks. How it is done: Polymorph Form C, Form X and mixtures of the two polymorphic forms C+X have all been tested at different conditions of temperature and relative humidity for signs of solid state transformation. The stress stability test was carried out at three sets of conditions: 60° C., 60° C./75% relative humidity and 80° C./75% relative humidity, and samples were analyzed after 1, 2 and 4 weeks, i.e. after 7, 14 and 28 days.
One 1.8 ml amber screw top vial (27267-U, Supelco) containing between 50 and 100 mg {4-[(1R,3S)-3-((R)-1-Naphthalen-1-yl-ethylamino)-cyclopentyl]-phenoxy}-acetic acid was tested per individual set of conditions. The vials to be tested at 60° C. were closed with a PTFE lined black polypropylene solid cap (27416, Supelco) and placed in a thermostated heating cabinet. The vials to be tested at 60° C./75% relative humidity and 80° C./75% relative humidity were placed uncapped in a desiccator containing a saturated NaCl solution. The desiccator was subsequently placed in a thermostatted heating cabinet.
The samples were analyzed at 1, 2 and 4 weeks for • 1. Visual appearance • 2. HPLC assay and impurities • 3. Polymorph characterization

The nature of data set [3]: Thermo gravimetric analysis (TGA). Particulars: TGA trail of Graph 4b (Form X), ±2° C. How it is done: TGA experiments were conducted using a Perkin Elmer Pyris 1 TGA instrument. About 10-20 mg of sample was loaded into a ceramic pan for the measurements. The sample temperature was ramped from 25 to 350° C. at 10° C./min. Nitrogen was used as the purge gas at a flow rate of 40 mL/min.

The term Solubility denotes the dissolved amount per volume that the medium holds. Low readings indicate a poorly soluble substance, high ones a readily soluble substance. As for `C[C@@H](N[C@H]1CC[C@@H](c2ccc(OCC(=O)O)cc2)C1)c1cccc2ccccc12` [Form C, {4-[(1R,3S)-3-((R)-1-Naphthalen-1-yl-ethylamino)-cyclopentyl]-phenoxy}-acetic acid], the Solubility in data set [1] (pH 1.0 (0.1N HCl)) was 1225 µg/mL (≈ 3150 µM); in data set [1] (pH 2.0 (Sorensen phosphate buffer)), 394 µg/mL and 329 µg/mL; in data set [1] (pH 4.0 (Sorensen phosphate buffer)), 52 µg/mL and 53 µg/mL; in data set [1] (pH 6.0 (Sorensen phosphate buffer)) it was 43 µg/mL (≈ 110 µM); in data set [1] (pH 8.0 (Sorensen phosphate buffer)), 55 µg/mL (≈ 141 µM). Moreover, the “4 week stress stability test without any solid state transformation” value in data set [2] is “passed”.
The solubility is the concentration that dissolves in the medium under given conditions. With `C[C@@H](N[C@H]1CC[C@@H](c2ccc(OCC(=O)O)cc2)C1)c1cccc2ccccc12` [Form X, {4-[(1R,3S)-3-((R)-1-Naphthalen-1-yl-ethylamino)-cyclopentyl]-phenoxy}-acetic acid], the solubility at 24 h in data set [1] (0.1N HCl, pH 1, simulated gastric fluid, pH 1.0 (0.1N HCl)) is 1240 µg/mL (≈ 3190 µM); in data set [1] (Sorensen phosphate buffer, pH 2, aqueous buffer, pH 2.0 (Sorensen phosphate buffer)) it was 551 µg/mL (≈ 1410 µM); in data set [1] (Sorensen phosphate buffer, pH 4, aqueous buffer, pH 4.0 (Sorensen phosphate buffer)), 86 µg/mL (≈ 221 µM); in data set [1] (Sorensen phosphate buffer, pH 6, aqueous buffer, pH 6.0 (Sorensen phosphate buffer)), 78 µg/mL (≈ 200 µM); in data set [1] (Sorensen phosphate buffer, pH 8, aqueous buffer, pH 8.0 (Sorensen phosphate buffer)), 80 µg/mL (≈ 205 µM). In data set [1] (room temperature), the “solubility compared to Form C” value is “higher”. In addition, the “4 week stress stability test without any solid state transformation” value in data set [2] is “passed”.
`C[C@@H](N[C@H]1CC[C@@H](c2ccc(OCC(=O)O)cc2)C1)c1cccc2ccccc12` [{4-[(1R,3S)-3-((R)-1-Naphthalen-1-yl-ethylamino)-cyclopentyl]-phenoxy}-acetic acid]: the “stable towards degradation at temperatures below” value in data set [3] was “below 255 °C”. In addition, the “4 week stress stability test without any solid state transformation” value in data set [2] is reported as “passed”.
